# Experimental data reported in US20220133722A1, “PHARMACEUTICAL COMPOSITIONS” (QUE ONCOLOGY PTY LTD, priority 2019, published 2022).
# Values joined by “and” are separate entries in the source; they are usually repeats but may differ in a detail not shown here. Equal values may be shown once.
# Experiment: Part 2 PK study: 200 mg QD versus 100 mg BID for 10 days under fed conditions
# Type: in vivo, human
# Conditions: for AUC0-last / AUC0-tau / Cavg / Cmax / Fluct / Tlast / Tmax / t½ / % AUCexp / AUCinf / Accum Index / CLss/F / Cmin: fed
# Experimental: Part 2 involved analysing the PK parameters obtained following either single (QD) or twice daily (BD) dosing of a compound of formula (Ia) under fed conditions.
# Subjects were randomized 1:1 to receive a daily dose of 200 mg administered once daily in the morning (200 mg capsule) or twice daily (100 mg capsules BID) for a total of 10 days. PK blood samples were taken on Day 1 pre-dose and at 0.25, 0.5, 1.0, 1.5, 2, 3, 4, 8, 10, 12 and 16 hours post-dose. On Days 2 to 10, PK blood samples were taken once pre-dose, and on Days 11 to 14, at 24, 36, 48, 60, 72 and 96 hours post-dose.
# Subjects selected for participation checked into the clinical unit and were randomized to the dosing regimen receiving their first dose of study drug on the morning of Day 1 followed by PK and safety assessments through the morning of Day 2 (24 hours post-dose). Subjects on a BID regimen received their second dose of study drug approximately 12 hours after the first dose. Subjects remained confined in the clinic for dosing BID or QD through the last dose of study drug on the morning of Day 10. PK samples were collected through 96 hrs post-dose. Subjects were discharged from the clinic following collection of the 72 hr PK sample, returning to the clinic on the morning of Day 14 for the 96 hr sample collection.
# For both Parts 1 and 2, samples were processed and analysed as follows. The method extracted Q-122 and the Internal Standard (IS, Q-122 ^13C4) from human plasma using protein precipitation extraction.
# The analytes were separated by HPLC on a Phenomenex Synergi Polar-RP column, and the eluates monitored by an API4000 MS/MS detector in positive MRM mode. The extract was then assayed against a calibration curve. The data were acquired and processed by the data acquisition system Analyst® (Sciex) linked directly to the API4000 MS/MS detector and then processed in Watson LIMS™ (Thermo Scientific), where applicable. The method range is from 10.0 to 2500 ng/mL using 50 μL of matrix and has a run time of approximately 3.2 minutes per sample.
# Plasma PK parameters for each dosing regimen and dose level were calculated from the concentrations of Q-122 and its major metabolites measured in pre-dose and post-dose plasma samples. For each dose level, descriptive statistics (sample size, arithmetic means, geometric means, standard deviation, % coefficient of variation, minimum, median, and maximum) are presented.
# The pharmacokinetic results were processed according to standard non-compartmental analytical procedures. The software used was Phoenix™ WinNonlin® v 6.4 (Pharsight Corporation, USA) and Microsoft® Excel® 2010 (Microsoft Corporation). The following PK parameters were estimated from plasma data.
# [1] = 100 mg BID, Day 1, individual subjects
# [2] = 100 mg BID, Day 10, individual subjects
# [3] = 200 mg QD, Day 1, individual subjects
structure (smiles),measurement,setting,value
c1cnc(NCc2ccc(CNc3ncccn3)cc2)nc1 [Q-122],Cmin (range over subjects),100 mg BID dosing with food,117 to 195 ng/mL
same,change of Cavg between days 1 and 10,100 mg BID dosing with food,doubled
same,increase of mean Cmax between days 1 and 10,100 mg BID dosing with food,less than 2 fold
same,trough concentrations with BID dosing relative to QD dosing,100 mg BID versus 200 mg QD,approximately double
same,AUC0-last,[1],6822 ng·h/mL and 7028 ng·h/mL and 6463 ng·h/mL and 6090 ng·h/mL and 5186 ng·h/mL
same,AUC0-tau,[1],3781 ng·h/mL and 2727 ng·h/mL and 4254 ng·h/mL and 3600 ng·h/mL and 4378 ng·h/mL
same,Cavg,[1],354.49 ng/mL and 299.97 ng/mL and 364.87 ng/mL and 232.90 ng/mL and 315.05 ng/mL and 227.25 ng/mL
same,Cmax,[1],939.00 ng/mL and 773.00 ng/mL and 845.00 ng/mL and 405.00 ng/mL and 852.00 ng/mL and 563.00 ng/mL
same,Fluct,[1],264.89% and 257.70% and 231.59% and 173.90% and 270.44% and 247.74%
same,Tlast,[1],24.00 h
same,Tmax,[1],1.00 h and 1.50 h
same,t½,[1],9.38 h and 6.21 h and 3.97 h and 3.19 h and 5.52 h and 4.66 h
same,AUC0-tau,"100 mg BID, Day 1, max",4378 ng·h/mL
same,Cavg,"100 mg BID, Day 1, max",364.87 ng/mL
same,Cmax,"100 mg BID, Day 1, max",939.00 ng/mL
same,Fluct,"100 mg BID, Day 1, max",270.44%
same,Tlast,"100 mg BID, Day 1, max",24.00 h
same,t½,"100 mg BID, Day 1, max",9.38 h
same,Cavg,"100 mg BID, Day 1, mean",299.088 ng/mL
same,Fluct,"100 mg BID, Day 1, mean",241.041%
same,Tlast,"100 mg BID, Day 1, mean",24.000 h
same,Cavg,"100 mg BID, Day 1, median",307.51 ng/mL
same,Fluct,"100 mg BID, Day 1, median",252.72%
same,Tlast,"100 mg BID, Day 1, median",24.00 h
same,AUC0-last,"100 mg BID, Day 1, min",5186 ng·h/mL
same,AUC0-tau,"100 mg BID, Day 1, min",2727 ng·h/mL
same,Cavg,"100 mg BID, Day 1, min",227.25 ng/mL
same,Cmax,"100 mg BID, Day 1, min",405.00 ng/mL
same,Fluct,"100 mg BID, Day 1, min",173.90%
same,Tlast,"100 mg BID, Day 1, min",24.00 h
same,Tmax,"100 mg BID, Day 1, min",1.00 h
same,t½,"100 mg BID, Day 1, min",3.19 h
same,% AUCexp,[2],2.24% and 1.52% and 8.16% and 4.45% and 7.33% and 4.38%
same,AUC0-last,[2],7715 ng·h/mL and 5510 ng·h/mL and 6477 ng·h/mL and 5615 ng·h/mL and 7597 ng·h/mL
same,AUC0-tau,[2],5982 ng·h/mL and 3731 ng·h/mL and 5545 ng·h/mL and 4118 ng·h/mL and 6283 ng·h/mL
same,AUCinf,[2],7834 ng·h/mL and 6000 ng·h/mL and 6779 ng·h/mL and 6059 ng·h/mL and 7945 ng·h/mL
same,Accum Index,[2],2.06 and 1.33 and 4.17 and 1.36 and 1.79 and 1.28
same,CLss/F,[2],14.28 L/h and 16.72 L/h and 26.80 L/h and 18.03 L/h and 24.29 L/h and 15.92 L/h
same,Cavg,[2],583.47 ng/mL and 498.51 ng/mL and 310.92 ng/mL and 462.09 ng/mL and 343.13 ng/mL and 523.54 ng/mL
same,Cmax,[2],1160.00 ng/mL and 865.00 ng/mL and 1050.00 ng/mL and 677.00 ng/mL and 1070.00 ng/mL
same,Cmin,[2],122.00 ng/mL (2×) and 164.00 ng/mL and 117.00 ng/mL and 155.00 ng/mL and 195.00 ng/mL
same,Fluct,[2],201.90% and 199.80% and 240.58% and 200.83% and 152.13% and 167.13%
same,Tlast,[2],48.00 h and 36.00 h (2×) and 72.00 h and 24.00 h (2×)
same,Tmax,[2],1.50 h and 1.00 h
same,t½,[2],12.52 h and 6.01 h and 30.30 h and 6.26 h and 10.19 h and 5.46 h
same,% AUCexp,"100 mg BID, Day 10, max",8.16%
same,Accum Index,"100 mg BID, Day 10, max",4.17
same,CLss/F,"100 mg BID, Day 10, max",26.80 L/h
same,Cavg,"100 mg BID, Day 10, max",583.47 ng/mL
same,Cmin,"100 mg BID, Day 10, max",195.00 ng/mL
same,Fluct,"100 mg BID, Day 10, max",240.58%
same,Tlast,"100 mg BID, Day 10, max",72.00 h
same,t½,"100 mg BID, Day 10, max",30.30 h
same,% AUCexp,"100 mg BID, Day 10, mean",4.679%
same,CLss/F,"100 mg BID, Day 10, mean",19.340 L/h
same,Cavg,"100 mg BID, Day 10, mean",453.609 ng/mL
same,Cmin,"100 mg BID, Day 10, mean",145.833 ng/mL
same,Fluct,"100 mg BID, Day 10, mean",193.726%
same,Tlast,"100 mg BID, Day 10, mean",40.000 h
same,% AUCexp,"100 mg BID, Day 10, median",4.42%
same,Accum Index,"100 mg BID, Day 10, median",1.58
same,CLss/F,"100 mg BID, Day 10, median",17.38 L/h
same,Cavg,"100 mg BID, Day 10, median",480.30 ng/mL
same,Cmin,"100 mg BID, Day 10, median",138.50 ng/mL
same,Fluct,"100 mg BID, Day 10, median",200.31%
same,Tlast,"100 mg BID, Day 10, median",36.00 h
same,% AUCexp,"100 mg BID, Day 10, min",1.52%
same,AUC0-last,"100 mg BID, Day 10, min",5510 ng·h/mL
same,AUC0-tau,"100 mg BID, Day 10, min",3731 ng·h/mL
same,AUCinf,"100 mg BID, Day 10, min",6000 ng·h/mL
same,Accum Index,"100 mg BID, Day 10, min",1.28
same,CLss/F,"100 mg BID, Day 10, min",14.28 L/h
same,Cavg,"100 mg BID, Day 10, min",310.92 ng/mL
same,Cmax,"100 mg BID, Day 10, min",677.00 ng/mL
same,Cmin,"100 mg BID, Day 10, min",117.00 ng/mL
same,Fluct,"100 mg BID, Day 10, min",152.13%
same,Tlast,"100 mg BID, Day 10, min",24 h
same,Tmax,"100 mg BID, Day 10, min",1.00 h
same,t½,"100 mg BID, Day 10, min",5.46 h
same,Cmin (range over subjects),200 mg QD dosing with food,52 to 94 ng/mL
same,change of Cmax and Cavg between Days 1 and 10,200 mg QD dosing with food,neither Cmax nor Cavg changed
same,AUC0-last,[3],6439 ng·h/mL and 1632 ng·h/mL and 6744 ng·h/mL and 8831 ng·h/mL and 12137 ng·h/mL and 12571 ng·h/mL
same,AUC0-tau,[3],8831 ng·h/mL and 12137 ng·h/mL and 12571 ng·h/mL and 6439 ng·h/mL and 1632 ng·h/mL and 6744 ng·h/mL
same,Cavg,[3],268.28 ng/mL and 67.99 ng/mL and 290.99 ng/mL and 367.97 ng/mL and 505.70 ng/mL and 523.80 ng/mL
same,Cmax,[3],980.00 ng/mL and 101.00 ng/mL and 1410.00 ng/mL and 1700.00 ng/mL and 1880.00 ng/mL and 2010.00 ng/mL
same,Fluct,[3],365.28% and 148.55% and 501.79% and 461.99% and 371.76% and 383.73%
same,Tlast,[3],24.00 h
same,t½,[3],7.07 h and 5.60 h and 4.61 h and 9.17 h and 17.12 h and 8.29 h
same,AUC0-last,"200 mg QD, Day 1, max",12571 ng·h/mL
same,AUC0-tau,"200 mg QD, Day 1, max",12571 ng·h/mL
same,Cavg,"200 mg QD, Day 1, max",523.80 ng/mL
same,Cmax,"200 mg QD, Day 1, max",2010.00 ng/mL
same,Fluct,"200 mg QD, Day 1, max",501.79%
same,Tlast,"200 mg QD, Day 1, max",24.00 h
same,t½,"200 mg QD, Day 1, max",17.12 h
same,Cavg,"200 mg QD, Day 1, mean",335.791 ng/mL
same,Fluct,"200 mg QD, Day 1, mean",372.185%
same,Tlast,"200 mg QD, Day 1, mean",24.000 h
same,Cavg,"200 mg QD, Day 1, median",324.48 ng/mL
same,Fluct,"200 mg QD, Day 1, median",377.75%
same,Tlast,"200 mg QD, Day 1, median",24.00 h
same,AUC0-last,"200 mg QD, Day 1, min",1632 ng·h/mL
same,AUC0-tau,"200 mg QD, Day 1, min",1632 ng·h/mL
same,Cavg,"200 mg QD, Day 1, min",67.99 ng/mL
same,Cmax,"200 mg QD, Day 1, min",101.00 ng/mL
same,Fluct,"200 mg QD, Day 1, min",148.55%
same,Tlast,"200 mg QD, Day 1, min",24.00 h
same,t½,"200 mg QD, Day 1, min",4.61 h
